What was measured:
circulating LH levels = test: Castrated male rat model, circulating levels of luteinizing hormone (LH); assay type: in vivo; conditions: single oral dose less than or equal to 30 mg/kg, p<0.05
Experimental: In Vivo Assay to Assess Compound Activity in Rat (Oral Dosing)
Castrated male rat model to assess the effect of compound of invention on circulating levels of luteinizing hormone (LH)
The effect of compounds of the invention to inhibit luteinizing hormone (LH) secretion is determined by the following biological studies.
In humans and rodents, castration is well-precedented to permit heightened, persistent GnRH signaling and consequent elevation of circulating LH. Thus, a castrated rat model is used to provide a broad index for measurement of LH inhibition as a marker of test compound inhibition of the GnRH signaling pathway.
Castrated adult male Sprague-Dawley (SD) rats (150-175 g) were purchased from Janvier (St Berthevin, France). All animals were housed 2 per cage in a temperature-controlled room (22±2° C.) and 50±5% relative humidity with a 12 hour/12 hour light/dark cycles (lights off at 6 h00 pm). The animals were allowed 3 weeks of postoperative recovery prior to study. Animals were handled on a daily basis. Standard diet and tap water were provided ad libitum. Animal cage litters were changed once a week. On the study day, animals were acclimated to the procedure room for a period of one hour prior to the initiation of the experiment.
Compounds of the invention were formulated in 0.5% methyl cellulose.
After basal sampling (TO) a single dose of compounds of the invention or vehicle was administrated orally to rats. Blood samples were then collected at several time points post dosing (45, 90, 150, 300 and 420 minutes). Blood samples were obtained via tail vein bleed, drawn into EDTA-containing tubes and centrifuged immediately. Plasma samples were collected and stored in a −80° C. freezer until assayed. Serum LH levels were determined using radioimmunoassay kit from RIAZEN—Rat LH, Zentech (Liege, Belgium). Baseline was defined as the initial basal blood sample.

plasma estradiol = test: Estradiol circulating level in female rats; assay type: in vivo, rat; conditions: 10 mg/kg b.i.d. oral, two consecutive estrous cycles, FIG. 3
Experimental: Effect of compounds of the invention on Estradiol circulating level in female rats. The aim of this study was to evaluate the effect of compounds of the invention on plasma estradiol levels following oral administration at 10 mg/kg (b.i.d.) for a period of 10 days in female rats.
(§1) Briefly the experimental methods used for this study were as follows:
Two groups of adult, female rats (Sprague-Dawley, ˜320 g) were treated in-phase with their individual estrous cycles. […] Compounds of the invention were prepared in a dose formulation of pyrogen-free water with 0.5% methylcellulose. Estradiol levels were determined for all groups by ELISA performed on plasma samples derived from blood collections taken at 30 minutes before the daily, 9 h30 test article administration on all days presented in FIG. 3.

[1] = tested on: serum TT, LH, FSH in women with PCOS; test: Phase 2a clinical trial, PolyCystic Ovary Syndrome (PCOS); assay type: in vivo, human; conditions: 180 mg QD
Experimental: The Phase 2a trial was double blind and randomized.
Blood draws for LH, FSH and TT were taken every visit between 2 and 8 hours after drug intake (baseline and week 3-6-12). […] These blood draws were the basis for assessing the primary (TT) and secondary (LH, FSH, LH:FSH ratio) endpoints. The primary endpoint of Total Testosterone was measured according to GLP using an LC-MS/MS method.
PCOS is typically characterized by excessive ovarian androgen production, failure of ovulation, and slightly enlarged ovaries with numerous peripheral small follicles that appear as cysts. The disorder is commonly accompanied by infertility. Typically, the clinical features of PCOS are associated with hypersecretion of LH and androgens (TT) but with normal serum concentrations of FSH hormone.
Statistical analyses performed by 2-way ANOVA comparing placebo to treatment.

plasma testosterone = test: Plasma testosterone in gonad intact male rats; assay type: in vivo, rat; conditions: 3 mg/kg single oral, vs vehicle, FIG. 1
Experimental: The study was designed to evaluate the effect of compounds of the invention on testosterone circulating levels following oral administration at 3 mg/kg on SD gonad intact male rats.
as §1
Two groups of non-fasted rats (male, Sprague-Dawley, 200 to 225 g; n=4 rats/group) with jugular vein cannulation, were dosed via a single oral administration of compounds of the invention at 3 mg/kg. The control group was dosed with the vehicle. Compounds of the invention were prepared in a dose formulation of pyrogen-free water with 0.5% methylcellulose. Blood samples were collected via the catheter implanted in the jugular vein at pre-determined intervals using EDTA-3K as anti-coagulant. Samples were chilled and rapidly processed by centrifugation to obtain corresponding plasma samples. Testosterone hormone levels were determined by RIA performed on plasma samples collected for all the groups at 5 minutes before administration (basal time), and at 45, 90, 150, 300, 480 minutes and 24 hours after dosing.

[2] = tested on: body temperature in ovariectomized ewes; test: In vivo assay in OVX ewes, thermoregulation; design: species or system ewe; conditions: 1 mg/kg intravenous
Source text: In Vivo Assay in OVX Ewes-Activity in Thermoregulation Experimental Methods: Evaluation of Thermoregulation in OVX Ewe […] After 4 months recovery, animals were acclimatised to housing in single pens for a period of 7 days with ad libitum access to water and […] lucerne hay. One day prior to experimentation, the animals received a jugular vein cannula ([…], Tuta Laboratories, Lane Cove, Australia). The cannula were kept patent with heparinised saline. […] Animals were fed at 12 h00. Rectal temperatures were monitored with a probe at hourly intervals throughout the experiment, starting at 7 h40 and concluding at 15 h40. […] However, this pyrogenic response to feeding in ovarectomized ewes was not observed in any animals treated with compound no 5. […] Graphical data presented as mean±SEM for vehicle-treated versus compound no 5-treated ewes (N=5/group). Statistical analyses performed by 2-way ANOVA followed by Sidak's Multiple Comparisons Test between treatment groups at the indicated time interval, *p<0.05. Conclusions: Ovariectomy in the ewe causes changes in core body temperature considered analogous to menopausal hot flashes ([…], Bryant, & Turner, 2003) to the extent that a transient, pyrogenic response to feeding is observed (Henry, Dunshea, Gould, & Clarke, 2008).

Row | SMILES | circulating LH levels (circulating LH levels) | also measured
1 | CCc1nsc(-c2nnc3n2CCN(C(=O)c2ccc(F)cc2)[C@@H]3C)n1 [Compound 2, (R)-(3-(3-ethyl-1,2,4-thiadiazol-5-yl)-8-methyl-5,6-dihydro-[1,2,4]triazolo[4,3-a]pyrazin-7(8H)-yl)(4-fluorophenyl)methanone] | significantly suppressed | 
2 | Cc1nsc(-c2nnc3n2CCN(C(=O)c2ccc(F)cc2)[C@@H]3C)n1 [Compound 5, (R)-(4-fluorophenyl)(8-methyl-3-(3-methyl-1,2,4-thiadiazol-5-yl)-5,6-dihydro-[1,2,4]triazolo[4,3-a]pyrazin-7(8H)-yl)methanone] | significantly suppressed | estradiol levels (plasma estradiol): significantly decreased; FSH secretion [1]: preserved; LH [1]: significant decrease; LH:FSH in comparison of placebo [1]: significantly reduced; TT in comparison of placebo [1]: significantly reduced; plasma testosterone level (plasma testosterone): significantly suppressed; pyrogenic response to feeding [2]: not observed
3 | CCc1noc(-c2nnc3n2CCN(C(=O)c2ccc(F)cc2)[C@@H]3C)n1 [Compound 13, (R)-(3-(3-ethyl-1,2,4-oxadiazol-5-yl)-8-methyl-5,6-dihydro-[1,2,4]triazolo[4,3-a]pyrazin-7(8H)-yl)(4-fluorophenyl)methanone] | significantly suppressed | 
4 | CCc1noc(-c2nnc3n2CCN(C(=O)c2ccc(-c4cccs4)cc2)[C@@H]3C)n1 [Compound 30, (R)-(3-(3-ethyl-1,2,4-oxadiazol-5-yl)-8-methyl-5,6-dihydro-[1,2,4]triazolo[4,3-a]pyrazin-7(8H)-yl)(4-(thiophen-2-yl)phenyl)methanone] | significantly suppressed | 
5 | Cc1nsc(-c2nnc3n2CCN(C(=O)c2ccc(Cl)c(F)c2)[C@@H]3C)n1 [Compound 4, (R)-(4-chloro-3-fluorophenyl)(8-methyl-3-(3-methyl-1,2,4-thiadiazol-5-yl)-5,6-dihydro-[1,2,4]triazolo[4,3-a]pyrazin-7(8H)-yl)methanone] | significantly suppressed | 
6 | Cc1nsc(-c2nnc3n2CCN(C(=O)c2ccccc2)[C@@H]3C)n1 [Compound 20, (R)-(8-methyl-3-(3-methyl-1,2,4-thiadiazol-5-yl)-5,6-dihydro-[1,2,4]triazolo[4,3-a]pyrazin-7(8H)-yl)(phenyl)methanone] | significantly suppressed | 
7 | Cc1nsc(-c2nnc3n2CCN(C(=O)c2ccc(F)c(F)c2F)[C@@H]3C)n1 [Compound 8, (R)-(8-methyl-3-(3-methyl-1,2,4-thiadiazol-5-yl)-5,6-dihydro-[1,2,4]triazolo[4,3-a]pyrazin-7(8H)-yl)(2,3,4-trifluorophenyl)methanone] | significantly suppressed | 
8 | Cc1nsc(-c2nnc3n2CCN(C(=O)c2ccc(Cl)c(Cl)c2)[C@@H]3C)n1 [Compound 1, (R)-(3,4-dichlorophenyl)(8-methyl-3-(3-methyl-1,2,4-thiadiazol-5-yl)-5,6-dihydro-[1,2,4]triazolo[4,3-a]pyrazin-7(8H)-yl)methanone] | significantly suppressed | 
9 | Cc1nsc(-c2nnc3n2CCN(C(=O)c2ccc(F)c(F)c2)[C@@H]3C)n1 [Compound 9, (R)-(3,4-difluorophenyl)(8-methyl-3-(3-methyl-1,2,4-thiadiazol-5-yl)-5,6-dihydro-[1,2,4]triazolo[4,3-a]pyrazin-7(8H)-yl)methanone] | significantly suppressed | 

— patent publication US11731974B2, “N-acyl-(3-substituted)-(8-substituted)-5,6-dihydro-[1,2,4]triazolo[4,3-a]pyrazines as selective NK-3 receptor antagonists” (Ogeda SA, priority 2013, dated 2023)
